What was measured:
[1] = target: T1, ACAT in J774 cells (Mus musculus, UniProt Q61263); test: ACAT inhibitory action (anti-foaming action) in J774 cells, cholesterol ester formation; assay type: cell-based; settings: for IC50: J774 cells, 10 μg/ml 25-OH cholesterol, 18-hr culturing, cholesterol ester per protein, read-out: IC50 (μM) of J774-derived enzyme; for IC50 (HepG2)/IC50 (J774): ratio HepG2 / J774
T1 construct: J774 cells or HepG2 cells were inoculated on a 24-well plate; endogenous in cells; host or cells: J774 cells
T1 sequence (Q61263 1-540): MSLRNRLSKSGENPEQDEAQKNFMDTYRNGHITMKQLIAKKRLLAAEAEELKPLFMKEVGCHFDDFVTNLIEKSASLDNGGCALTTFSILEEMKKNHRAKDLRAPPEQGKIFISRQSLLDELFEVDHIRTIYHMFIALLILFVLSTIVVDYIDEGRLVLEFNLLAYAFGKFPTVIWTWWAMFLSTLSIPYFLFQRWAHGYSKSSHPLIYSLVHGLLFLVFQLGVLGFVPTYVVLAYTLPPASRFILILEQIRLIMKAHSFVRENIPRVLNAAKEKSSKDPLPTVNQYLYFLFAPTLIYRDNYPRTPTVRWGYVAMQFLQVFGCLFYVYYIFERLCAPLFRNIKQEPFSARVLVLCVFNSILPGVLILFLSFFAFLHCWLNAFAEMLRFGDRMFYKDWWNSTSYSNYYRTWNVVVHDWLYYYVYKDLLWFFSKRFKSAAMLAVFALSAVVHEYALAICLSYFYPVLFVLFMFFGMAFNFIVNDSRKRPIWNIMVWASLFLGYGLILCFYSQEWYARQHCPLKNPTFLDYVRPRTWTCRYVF
Method: (§1) J774 cells or HepG2 cells were inoculated on a 24-well plate; J774 cells and HepG2 cells were cultured in DMEM and MEM culture broths (each of the broths containing 10% calf fetus serum), respectively, in a 5% CO2 incubator at 37° C. for 24 hours. […] After discarding the culture media, the resulting cultures were rinsed twice with PBS and extracted with 1.5 ml of hexane:isopropanol (3:2), for concentration and drying. The extracts were dissolved in isopropanol containing 0.2 ml of 10% Triton X-100, to assay total cholesterol (TC) and free cholesterol (FC) by using Cholesterol E Test WAKO (manufactured by Wako Pure Chemicals, Co.) and Free Cholesterol E Test Wako (manufactured by Wako Pure Chemicals, Co.). […] Based on the difference between TC and FC, cholesterol ester was calculated per protein, to determine IC50, compared with the calculated control IC50 value.

[2] = test system: ACAT in HepG2 cells; test: ACAT inhibitory action in HepG2 cells, cholesterol ester formation; assay type: cell-based; settings: 10 μg/ml 25-OH cholesterol, 18-hr culturing, cholesterol ester per protein, read-out: IC50 (μM) of HepG2-derived enzyme
Method: as §1

| SMILES | melting point [°C] | IC50 [1] [µM] | IC50 (HepG2)/IC50 (J774) [1] | IC50 [2] [µM] |
| --- | --- | --- | --- | --- |
| COC(=O)c1ccc2nc(SCCCCCCCCC(=O)Nc3c(C(C)C)cccc3C(C)C)oc2c1 [Example 54, 9-(6-methoxycarbonylbenzoxazol-2-ylthio)-N-(2,6-diisopropylphenyl)nonanamide] | 122 to 124 | – | – | – |
| COC(=O)c1cccc2nc(SCCCCCCCNC(=O)Nc3c(C(C)C)cccc3C(C)C)oc12 [Example 55, N-(2,6-diisopropylphenyl)-N′-[7-(7-methoxycarbonylbenzoxazol-2-ylthio)heptyl]urea] | 179 to 181 | – | – | – |
| COC(=O)c1cccc2nc(SCCCCCC(=O)Nc3c(C(C)C)cccc3C(C)C)oc12 [Example 46, 6-(7-methoxycarbonylbenzoxazol-2-ylthio)-N-(2,6-diisopropylphenyl)hexanamide] | 118 to 119 | 0.098 | 303.4 | 29.8 |
| COC(=O)c1cccc2nc(SCCCCCC(=O)Nc3c(OC)cc(OC)cc3OC)oc12 [Example 62, 6-(7-methoxycarbonylbenzoxazol-2-ylthio)-N-(2,4,6-trimethoxyphenyl)hexanamide] | 136 to 138 | – | – | – |
| CC(C)c1cccc(C(C)C)c1NC(=O)C(C)(C)CCCOc1ccc2c(c1)C=C(c1nccn1C)C(CCc1ccc(F)cc1)O2 (centres unmarked) [Control 1, 5-[2-(2-(4-fluorophenyl)ethyl)-3-(1-methyl-1H-imidazol-2-yl)-2H-1-benzopyran-6-yl]oxy-2,2-dimethyl-N-(2,6-diisopropylphenyl)pentanamide, reference compound] | – | 0.56 | 9.5 | – |
| CC(C)c1cccc(C(C)C)c1NC(=O)CCCCCSc1nc2cccc(C(=O)O)c2o1 [Example 47, 6-(7-carboxybenzoxazol-2-ylthio)-N-(2,6-diisopropylphenyl)hexanamide] | 175 to 177 | – | – | – |
| CC(C)c1cccc(C(C)C)c1NC(=O)CCCCCSc1nc2c(N(C)C)cccc2o1 [Example 28, 6-(4-N,N-dimethylaminobenzoxazol-2-ylthio)-N-(2,6-diisopropylphenyl)hexanamide] | 129 to 130 | 0.47 | 0.9 | 0.42 |
| COC(=O)c1c(O)ccc2nc(SCCCCCC(=O)Nc3c(C(C)C)cccc3C(C)C)oc12 [Example 91, 6-[6-hydroxy-7-methoxycarbonylbenzoxazol-2-ylthio)-N-(2,6-diisopropylphenyl)hexanamide] | 155 to 156 | – | – | – |
| CC(C)c1cccc(C(C)C)c1NC(=O)CCCCCSc1nc2cccc(N(C)C)c2o1 [Example 50, 6-(7-N,N-dimethylaminobenzoxazol-2-ylthio)-N-(2,6-diisopropylphenyl)hexanamide] | 129 to 130 | – | – | – |
| CC(C)c1cccc(C(C)C)c1NC(=O)CCCCCSc1nc2cc(N(C)C)ccc2o1 [Example 38, 6-(5-N,N-dimethylaminobenzoxazol-2-ylthio)-N-(2,6-diisopropylphenyl)hexanamide] | 130 to 132 | 1.83 | – | – |
| CC(C)c1cccc(C(C)C)c1NC(=O)CCCCCSc1nc2cccc(CO)c2o1 [Example 48, 6-[7-hydroxymethylbenzoxazol-2-ylthio]-N-(2,6-diisopropylphenyl)hexanamide] | 91 to 92 | – | – | – |
| COC(=O)c1ccc2nc(SCCCCCC(=O)Nc3c(C(C)C)cccc3C(C)C)[nH]c2c1 [Example 63, 6-(5-methoxycarbonylbenzimidazol-2-ylthio)-N-(2,6-diisopropylphenyl)hexanamide] | 190 to 192 | – | – | – |
| COC(=O)c1ccc2nc(SCCCCCC(=O)Nc3c(C(C)C)cccc3C(C)C)oc2c1 [Example 40, 6-(6-methoxycarbonylbenzoxazol-2-ylthio)-N-(2,6-diisopropylphenyl)hexanamide] | 157 to 158 | – | – | – |
| CC(C)c1cccc(C(C)C)c1NC(=O)CCCCCNc1nc2cccnc2o1 [Example 20, 6-(oxazolo[5,4-b]pyridin-2-ylamino)-N-(2,6-diisopropylphenyl)hexanamide] | 177 to 178 | – | – | – |
| CC(C)c1cccc(C(C)C)c1NC(=O)CCCCCSc1nc2cccc(-c3cc[nH]n3)c2o1 [Example 88, 6-[7-(pyrazol-3-yl)benzoxazol-2-ylthio]-N-(2,6-diisopropylphenyl)hexanamide] | 174 to 176 | 1.64 | 6.1 | 10 |
| CC(C)c1cccc(C(C)C)c1NC(=O)CCCCCCCCSc1nc2cccc(C(F)(F)F)c2o1 [Example 75, 9-(7-trifluoromethylbenzoxazol-2-ylthio)-N-(2,6-diisopropylphenyl)nonanamide] | 82 to 84 | 0.012 | 7.4 | 0.089 |
| CC(C)c1cccc(C(C)C)c1NC(=O)CCCCCSc1nc2cc(OCc3ccccc3)ccc2o1 [Example 29, 6-(5-benzyloxybenzoxazol-2-ylthio)-N-(2,6-diisopropylphenyl)hexanamide] | 102 to 104 | 0.26 | 7.3 | 1.9 |
| CC(C)c1cccc(C(C)C)c1NC(=O)CCCCCSc1nc2cccc(CN(C)C)c2o1 [Example 49, 6-[7-(N,N-dimethylaminomethyl)benzoxazol-2-ylthio]-N-(2,6-diisopropylphenyl)hexanamide] | 102 to 104 | – | – | – |
| CC(C)c1cccc(C(C)C)c1NC(=O)CCCCCSc1nc2ccc(CO)cc2o1 [Example 42, 6-(6-hydroxymethylbenzoxazol-2-ylthio)-N-(2,6-diisopropylphenyl)hexanamide] | 93 to 95 | – | – | – |
| CC(C)c1cccc(C(C)C)c1NC(=O)CCCCCSc1nc2ncccc2o1 [Example 1, 6-(oxazolo[4,5-b]pyridin-2-ylthio)-N-(2,6-diisopropylphenyl)hexanamide] | 94 to 95 | 1.3 | 3.2 | 4.1 |
| CC(C)c1cccc(C(C)C)c1NC(=O)CCCCCSc1nc2cccc(CN3CCOCC3)c2o1 [Example 51, 6-[7-(1-morpholino)methylbenzoxazol-2-ylthio]-N-(2,6-diisopropylphenyl)hexanamide] | 117 to 118 | – | – | – |
| CC(C)c1cccc(C(C)C)c1NC(=O)CCCCCSc1nc2cccc(C(F)(F)F)c2o1 [Example 74, 6-(7-trifluoromethylbenzoxazol-2-ylthio)-N-(2,6-diisopropylphenyl)hexanamide] | 130 | – | – | – |
| CC(C)c1cccc(C(C)C)c1NC(=O)CCCCCSc1nc2ccc(CN(C)C)cc2o1 [Example 43, 6-[6-(N,N-dimethylaminomethyl)benzoxazol-2-ylthio]-N-(2,6-diisopropylphenyl)hexanamide] | 82 to 84 | – | – | – |
| CC(C)c1cccc(C(C)C)c1NC(=O)CCCCCSc1nc2c(CN(C)C)cccc2o1 [Example 27, 6-[4-(N,N-dimethylaminomethyl)benzoxazol-2-ylthio]-N-(2,6-diisopropylphenyl)hexanamide] | 113 to 115 | 1.31 | – | – |
| CC(C)c1cccc(C(C)C)c1NC(=O)CCCCCSc1ncc[nH]1 [Example 68, 6-(imidazol-2-ylthio)-N-(2,6-diisopropylphenyl)hexanamide] | 190 to 191 | – | – | – |
| CC(C)c1cccc(C(C)C)c1NC(=O)CCCCCSc1nc2cccnc2s1 [Example 21, 6-(thiazolo[5,4-b]pyridin-2-ylthio)-N-(2,6-diisopropylphenyl)hexanamide] | 137 to 138 | – | – | – |
| CCOC(=O)c1cccc2nc(SCCCCCC(=O)Nc3c(C(C)C)cccc3C(C)C)oc12 [Example 79, 6-(7-ethoxycarbonylbenzoxazol-2-ylthio)-N-(2,6-diisopropylphenyl)hexanamide] | 114 to 116 | – | – | – |
| COC(=O)c1cccc2nc([S+]([O-])CCCCCCCNC(=O)Nc3c(C(C)C)cccc3C(C)C)oc12 (centres unmarked) [Example 56, N-(2,6-diisopropylphenyl)-N′-[7-(7-methoxycarbonylbenzoxazol-2-ylsulfinyl)heptyl]urea] | 145 to 147 | – | – | – |
| CC(C)c1cccc(C(C)C)c1NC(=O)CCCCCSc1nc2cccc(-c3nnn[nH]3)c2o1 [Example 52, 6-[7-(tetrazol-5-yl)benzoxazol-2-ylthio)-N-(2,6-diisopropylphenyl)hexanamide] | 218 to 220 | – | – | – |

Source: patent publication US6362208B1, “Anilide compounds and drugs containing the same” (Kowa Company, Ltd., priority 1997, dated 2002)
